Tested on: six V600E BRAF melanoma cell lines
Assay: Screening of recombinant RTK ligands for ability to confer resistance to BRAFi (PLX4720) or MEKi (PD184352) (Table 4)
Assay type: cell-based, human
Design: ability of recombinant RTK ligand to confer resistance / ability of recombinant RTK ligand to confer resistance (screening value): scale not given here
Protocol: HGF is the only one that can substantially confer drug resistance to the cell lines.
The complexity of the tumor microenvironment is much greater than an in vitro co-culture system. Therefore, the inventors explored whether the activation of other RTKs could result in a similar resistance as that observed with the activation of MET. To this end, six V600E BRAF melanoma cell lines were tested for their resistance to either BRAFi (PLX4720) or MEKi (PD184352) after the addition of 22 RTK ligands that have the potential of activating almost all known RTKs. […] The activation of a selected subset of these RTKs was confirmed by western blotting and by high throughput tyrosine kinase phosphorylation profiling.

[1] = A2058, PD184352 - 1 uM, ligand 0.4 ng/ml
[2] = A2058, PD184352 - 1 uM, ligand 1.6 ng/ml
[3] = A2058, PD184352 - 1 uM, ligand 6.25 ng/ml
[4] = A2058, PD184352 - 1 uM, ligand 25 ng/ml
[5] = A2058, PD184352 - 1 uM, ligand 100 ng/ml
[6] = A2058, PLX4720 - 2 uM, ligand 0.4 ng/ml
[7] = A2058, PLX4720 - 2 uM, ligand 1.6 ng/ml
[8] = A2058, PLX4720 - 2 uM, ligand 6.25 ng/ml
[9] = A2058, PLX4720 - 2 uM, ligand 25 ng/ml
[10] = A2058, PLX4720 - 2 uM, ligand 100 ng/ml
[11] = C32, PD184352 - 1 uM, ligand 0.4 ng/ml
[12] = C32, PD184352 - 1 uM, ligand 1.6 ng/ml
[13] = C32, PD184352 - 1 uM, ligand 6.25 ng/ml
[14] = C32, PD184352 - 1 uM, ligand 25 ng/ml
[15] = C32, PD184352 - 1 uM, ligand 100 ng/ml
[16] = C32, PLX4720 - 2 uM, ligand 0.4 ng/ml
[17] = C32, PLX4720 - 2 uM, ligand 1.6 ng/ml
[18] = C32, PLX4720 - 2 uM, ligand 6.25 ng/ml
[19] = C32, PLX4720 - 2 uM, ligand 25 ng/ml
[20] = C32, PLX4720 - 2 uM, ligand 100 ng/ml
[21] = Colo 829, PD184352 - 1 uM, ligand 0.4 ng/ml
[22] = Colo 829, PD184352 - 1 uM, ligand 1.6 ng/ml
[23] = Colo 829, PD184352 - 1 uM, ligand 6.25 ng/ml
[24] = Colo 829, PD184352 - 1 uM, ligand 25 ng/ml
[25] = Colo 829, PD184352 - 1 uM, ligand 100 ng/ml
[26] = Colo 829, PLX4720 - 2 uM, ligand 0.4 ng/ml
[27] = Colo 829, PLX4720 - 2 uM, ligand 1.6 ng/ml
[28] = Colo 829, PLX4720 - 2 uM, ligand 6.25 ng/ml
[29] = Colo 829, PLX4720 - 2 uM, ligand 25 ng/ml
[30] = Colo 829, PLX4720 - 2 uM, ligand 100 ng/ml
[31] = G-361, PD184352 - 1 uM, ligand 0.4 ng/ml
[32] = G-361, PD184352 - 1 uM, ligand 1.6 ng/ml
[33] = G-361, PD184352 - 1 uM, ligand 6.25 ng/ml
[34] = G-361, PD184352 - 1 uM, ligand 25 ng/ml
[35] = G-361, PD184352 - 1 uM, ligand 100 ng/ml
[36] = G-361, PLX4720 - 2 uM, ligand 0.4 ng/ml
[37] = G-361, PLX4720 - 2 uM, ligand 1.6 ng/ml
[38] = G-361, PLX4720 - 2 uM, ligand 6.25 ng/ml
[39] = G-361, PLX4720 - 2 uM, ligand 25 ng/ml
[40] = G-361, PLX4720 - 2 uM, ligand 100 ng/ml
[41] = SK-MEL-5, PD184352 - 1 uM, ligand 0.4 ng/ml
[42] = SK-MEL-5, PD184352 - 1 uM, ligand 1.6 ng/ml
[43] = SK-MEL-5, PD184352 - 1 uM, ligand 6.25 ng/ml
[44] = SK-MEL-5, PD184352 - 1 uM, ligand 25 ng/ml
[45] = SK-MEL-5, PD184352 - 1 uM, ligand 100 ng/ml
[46] = SK-MEL-5, PLX4720 - 2 uM, ligand 0.4 ng/ml
[47] = SK-MEL-5, PLX4720 - 2 uM, ligand 1.6 ng/ml
[48] = SK-MEL-5, PLX4720 - 2 uM, ligand 6.25 ng/ml
[49] = SK-MEL-5, PLX4720 - 2 uM, ligand 25 ng/ml
[50] = SK-MEL-5, PLX4720 - 2 uM, ligand 100 ng/ml
[51] = SK-MEL-28, PD184352 - 1 uM, ligand 0.4 ng/ml
[52] = SK-MEL-28, PD184352 - 1 uM, ligand 1.6 ng/ml
[53] = SK-MEL-28, PD184352 - 1 uM, ligand 6.25 ng/ml
[54] = SK-MEL-28, PD184352 - 1 uM, ligand 25 ng/ml
[55] = SK-MEL-28, PD184352 - 1 uM, ligand 100 ng/ml
[56] = SK-MEL-28, PLX4720 - 2 uM, ligand 0.4 ng/ml
[57] = SK-MEL-28, PLX4720 - 2 uM, ligand 1.6 ng/ml
[58] = SK-MEL-28, PLX4720 - 2 uM, ligand 6.25 ng/ml
[59] = SK-MEL-28, PLX4720 - 2 uM, ligand 25 ng/ml
[60] = SK-MEL-28, PLX4720 - 2 uM, ligand 100 ng/ml

NT3
ability of recombinant RTK ligand to confer resistance [1]: 1.04 | ability of recombinant RTK ligand to confer resistance [2]: 1.13 | ability of recombinant RTK ligand to confer resistance [3]: 1.08 | ability of recombinant RTK ligand to confer resistance [4]: 1.01 | ability of recombinant RTK ligand to confer resistance [5]: 0.90 | ability of recombinant RTK ligand to confer resistance [6]: 1.02 | ability of recombinant RTK ligand to confer resistance [7]: 1.16 | ability of recombinant RTK ligand to confer resistance [8]: 1.09 | ability of recombinant RTK ligand to confer resistance [9]: 1.02 | ability of recombinant RTK ligand to confer resistance [10]: 0.93 | ability of recombinant RTK ligand to confer resistance [11]: 0.98 | ability of recombinant RTK ligand to confer resistance [12]: 1.02 | ability of recombinant RTK ligand to confer resistance [13]: 0.93 | ability of recombinant RTK ligand to confer resistance [14]: 0.95 | ability of recombinant RTK ligand to confer resistance [15]: 0.88 | ability of recombinant RTK ligand to confer resistance [16]: 1.00 | ability of recombinant RTK ligand to confer resistance [17]: 1.03 | ability of recombinant RTK ligand to confer resistance [18]: 0.91 | ability of recombinant RTK ligand to confer resistance [19]: 1.00 | ability of recombinant RTK ligand to confer resistance [20]: 0.95 | ability of recombinant RTK ligand to confer resistance [21]: 1.07 | ability of recombinant RTK ligand to confer resistance [22]: 1.16 | ability of recombinant RTK ligand to confer resistance [23]: 1.02 | ability of recombinant RTK ligand to confer resistance [24]: 1.07 | ability of recombinant RTK ligand to confer resistance [25]: 1.03 | ability of recombinant RTK ligand to confer resistance [26]: 1.03 | ability of recombinant RTK ligand to confer resistance [27]: 1.15 | ability of recombinant RTK ligand to confer resistance [28]: 1.00 | ability of recombinant RTK ligand to confer resistance [29]: 1.09 | ability of recombinant RTK ligand to confer resistance [30]: 1.04 | ability of recombinant RTK ligand to confer resistance [31]: 0.98 | ability of recombinant RTK ligand to confer resistance [32]: 0.98 | ability of recombinant RTK ligand to confer resistance [33]: 1.01 | ability of recombinant RTK ligand to confer resistance [34]: 1.05 | ability of recombinant RTK ligand to confer resistance [35]: 0.88 | ability of recombinant RTK ligand to confer resistance [36]: 0.95 | ability of recombinant RTK ligand to confer resistance [37]: 0.98 | ability of recombinant RTK ligand to confer resistance [38]: 1.00 | ability of recombinant RTK ligand to confer resistance [39]: 0.98 | ability of recombinant RTK ligand to confer resistance [40]: 0.84 | ability of recombinant RTK ligand to confer resistance [41]: 1.02 | ability of recombinant RTK ligand to confer resistance [42]: 1.08 | ability of recombinant RTK ligand to confer resistance [43]: 1.00 | ability of recombinant RTK ligand to confer resistance [44]: 0.94 | ability of recombinant RTK ligand to confer resistance [45]: 1.04 | ability of recombinant RTK ligand to confer resistance [46]: 0.99 | ability of recombinant RTK ligand to confer resistance [47]: 1.02 | ability of recombinant RTK ligand to confer resistance [48]: 0.93 | ability of recombinant RTK ligand to confer resistance [49]: 0.98 | ability of recombinant RTK ligand to confer resistance [50]: 1.09 | ability of recombinant RTK ligand to confer resistance [51]: 1.02 | ability of recombinant RTK ligand to confer resistance [52]: 0.97 | ability of recombinant RTK ligand to confer resistance [53]: 0.99 | ability of recombinant RTK ligand to confer resistance [54]: 1.15 | ability of recombinant RTK ligand to confer resistance [55]: 0.96 | ability of recombinant RTK ligand to confer resistance [56]: 0.95 | ability of recombinant RTK ligand to confer resistance [57]: 1.05 | ability of recombinant RTK ligand to confer resistance [58]: 0.89 | ability of recombinant RTK ligand to confer resistance [59]: 1.14 | ability of recombinant RTK ligand to confer resistance [60]: 0.94

SCF
ability of recombinant RTK ligand to confer resistance [1]: 1.04 | ability of recombinant RTK ligand to confer resistance [2]: 1.04 | ability of recombinant RTK ligand to confer resistance [3]: 1.13 | ability of recombinant RTK ligand to confer resistance [4]: 1.12 | ability of recombinant RTK ligand to confer resistance [5]: 1.09 | ability of recombinant RTK ligand to confer resistance [6]: 1.04 | ability of recombinant RTK ligand to confer resistance [7]: 1.06 | ability of recombinant RTK ligand to confer resistance [8]: 1.07 | ability of recombinant RTK ligand to confer resistance [9]: 1.13 | ability of recombinant RTK ligand to confer resistance [10]: 1.08 | ability of recombinant RTK ligand to confer resistance [11]: 1.02 | ability of recombinant RTK ligand to confer resistance [12]: 1.05 | ability of recombinant RTK ligand to confer resistance [13]: 1.03 | ability of recombinant RTK ligand to confer resistance [14]: 1.04 | ability of recombinant RTK ligand to confer resistance [15]: 0.98 | ability of recombinant RTK ligand to confer resistance [16]: 1.05 | ability of recombinant RTK ligand to confer resistance [17]: 0.94 | ability of recombinant RTK ligand to confer resistance [18]: 0.97 | ability of recombinant RTK ligand to confer resistance [19]: 0.98 | ability of recombinant RTK ligand to confer resistance [20]: 0.96 | ability of recombinant RTK ligand to confer resistance [21]: 1.00 | ability of recombinant RTK ligand to confer resistance [22]: 1.08 | ability of recombinant RTK ligand to confer resistance [23]: 1.15 | ability of recombinant RTK ligand to confer resistance [24]: 1.18 | ability of recombinant RTK ligand to confer resistance [25]: 1.09 | ability of recombinant RTK ligand to confer resistance [26]: 0.96 | ability of recombinant RTK ligand to confer resistance [27]: 1.01 | ability of recombinant RTK ligand to confer resistance [28]: 1.06 | ability of recombinant RTK ligand to confer resistance [29]: 1.10 | ability of recombinant RTK ligand to confer resistance [30]: 1.04 | ability of recombinant RTK ligand to confer resistance [31]: 1.06 | ability of recombinant RTK ligand to confer resistance [32]: 0.99 | ability of recombinant RTK ligand to confer resistance [33]: 1.06 | ability of recombinant RTK ligand to confer resistance [34]: 1.13 | ability of recombinant RTK ligand to confer resistance [35]: 1.07 | ability of recombinant RTK ligand to confer resistance [36]: 1.07 | ability of recombinant RTK ligand to confer resistance [37]: 1.03 | ability of recombinant RTK ligand to confer resistance [38]: 1.04 | ability of recombinant RTK ligand to confer resistance [39]: 1.12 | ability of recombinant RTK ligand to confer resistance [40]: 1.07 | ability of recombinant RTK ligand to confer resistance [41]: 0.97 | ability of recombinant RTK ligand to confer resistance [42]: 0.34 | ability of recombinant RTK ligand to confer resistance [43]: 1.02 | ability of recombinant RTK ligand to confer resistance [44]: 1.10 | ability of recombinant RTK ligand to confer resistance [45]: 1.12 | ability of recombinant RTK ligand to confer resistance [46]: 0.90 | ability of recombinant RTK ligand to confer resistance [47]: 8.91 | ability of recombinant RTK ligand to confer resistance [48]: 0.96 | ability of recombinant RTK ligand to confer resistance [49]: 1.00 | ability of recombinant RTK ligand to confer resistance [50]: 1.09 | ability of recombinant RTK ligand to confer resistance [51]: 1.03 | ability of recombinant RTK ligand to confer resistance [52]: 0.94 | ability of recombinant RTK ligand to confer resistance [53]: 1.01 | ability of recombinant RTK ligand to confer resistance [54]: 1.06 | ability of recombinant RTK ligand to confer resistance [55]: 0.99 | ability of recombinant RTK ligand to confer resistance [56]: 0.92 | ability of recombinant RTK ligand to confer resistance [57]: 0.89 | ability of recombinant RTK ligand to confer resistance [58]: 0.98 | ability of recombinant RTK ligand to confer resistance [59]: 0.92 | ability of recombinant RTK ligand to confer resistance [60]: 0.98
